This note sets out measurements from ChEMBL document CHEMBL4304811, “Development of a Water-Soluble Indolylmaleimide Derivative IM-93 Showing Dual Inhibition of Ferroptosis and NETosis” (ACS Med Chem Lett, 2019).

For test [1], the system named is Tyrosine-protein kinase ABL1 (Homo sapiens), P00519 [F317L]. Description: Binding affinity to human phosphorylated ABL1 F317L mutant (S229 to K512 residues) expressed in mammalian expression system assessed as residual binding level at 10 uM by Kinomescan method relative to control.
The target of test [2] is Mitogen-activated protein kinase kinase kinase 5 (Homo sapiens) (UniProt Q99683). Description: Binding affinity to wild-type human partial length ASK1 (E648 to S964 residues) expressed in bacterial expression system assessed as residual binding level at 10 uM by Kinomescan method relative to control.
Test [3] deals with Bone morphogenetic protein receptor type-1B (Homo sapiens) (UniProt O00238). Description: Binding affinity to wild-type human partial length BMPR1B (D178 to L502 residues) expressed in mammalian expression system assessed as residual binding level at 10 uM by Kinomescan method relative to control.
Test [4] concerns the target Calcium/calmodulin-dependent protein kinase kinase 1 (Homo sapiens) (UniProt Q8N5S9). The test is described as follows: Binding affinity to wild-type human partial length CAMKK1 (R65 to E414 residues) expressed in bacterial expression system assessed as residual binding level at 10 uM by Kinomescan method relative to control.
In test [5] the target is Cyclin-dependent kinase 7 (Homo sapiens) (UniProt P50613). Description: Binding affinity to wild-type human full length CDK7 (M1 to L344 residues) expressed in mammalian expression system assessed as residual binding level at 10 uM by Kinomescan method relative to control.
In test [6] the target is Serine/threonine-protein kinase DCLK1 (Homo sapiens) (UniProt O15075). The test is described as follows: Binding affinity to wild-type human partial length DCAMKL1 (L270 to A662 residues) expressed in mammalian expression system assessed as residual binding level at 10 uM by Kinomescan method relative to control.
Test [7] concerns Epidermal growth factor receptor (Homo sapiens), P00533 [L858R,T790M]. Description: Binding affinity to human partial length EGFR L858R/T790M double mutant (R669 to V1011 residues) expressed in mammalian expression system assessed as residual binding level at 10 uM by Kinomescan method relative to control.
The target of test [8] is Rhodopsin kinase GRK7 (Homo sapiens) (UniProt Q8WTQ7). The test is described as follows: Binding affinity to wild-type human full length GRK7 (M1 to L553 residues) expressed in mammalian expression system assessed as residual binding level at 10 uM by Kinomescan method relative to control.
Test [9] deals with Homeodomain-interacting protein kinase 4 (Homo sapiens) (UniProt Q8NE63). Description: Binding affinity to wild-type human partial length HIPK4 (M1 to V384 residues) expressed in bacterial expression system assessed as residual binding level at 10 uM by Kinomescan method relative to control.
Test [10] addresses Mitogen-activated protein kinase kinase kinase kinase 1 (Homo sapiens) (UniProt Q92918). The test is described as follows: Binding affinity to wild-type human full length HPK1 (M1 to R799 residues) expressed in bacterial expression system assessed as residual binding level at 10 uM by Kinomescan method relative to control.
Test [11] deals with Interleukin-1 receptor-associated kinase 4 (Homo sapiens) (UniProt Q9NWZ3). The test is described as follows: Binding affinity to wild-type human partial length IRAK4 (M1 to S460 residues) expressed in mammalian expression system assessed as residual binding level at 10 uM by Kinomescan method relative to control.
Test [12] relates to Mast/stem cell growth factor receptor Kit (Homo sapiens), P10721 [D816V]. Description: Binding affinity to human partial length KIT D816V mutant (I571 to D952 residues) expressed in bacterial expression system assessed as residual binding level at 10 uM by Kinomescan method relative to control.
Test [13] has as its target Tyrosine-protein kinase Lck (Homo sapiens) (UniProt P06239). Description: Binding affinity to wild-type human partial length LCK (R207 to P509 residues) expressed in bacterial expression system assessed as residual binding level at 10 uM by Kinomescan method relative to control.
Test [14] concerns the target Tyrosine-protein kinase Mer (Homo sapiens) (UniProt Q12866). Description: Binding affinity to wild-type human partial length MERTK (R557 to L884 residues) expressed in bacterial expression system assessed as residual binding level at 10 uM by Kinomescan method relative to control.
For test [15], the target named is Serine/threonine-protein kinase Nek2 (Homo sapiens) (UniProt P51955). The test is described as follows: Binding affinity to wild-type human partial length NEK2 (M1 to K309 residues) expressed in bacterial expression system assessed as residual binding level at 10 uM by Kinomescan method relative to control.
Test [16] concerns the target Cyclin-dependent kinase 15 (Homo sapiens) (UniProt Q96Q40). Description: Binding affinity to wild-type human full length PFTAIRE2 (M1 to W384 residues) expressed in bacterial expression system assessed as residual binding level at 10 uM by Kinomescan method relative to control.
In test [17] the test system is Phosphatidylinositol 4,5-bisphosphate 3-kinase catalytic subunit alpha isoform (Homo sapiens), P42336 [I800L]. Description: Binding affinity to human partial length PIK3CA I800L mutant (R108 to N1068 residues) expressed in mammalian expression system assessed as residual binding level at 10 uM by Kinomescan method relative to control.
Test [18] concerns the target Phosphatidylinositol 5-phosphate 4-kinase type-2 beta (Homo sapiens) (UniProt P78356). Description: Binding affinity to wild-type human full length PIP5K2B (M1 to T416 residues) expressed in bacterial expression system assessed as residual binding level at 10 uM by Kinomescan method relative to control.
Test [19] has as its target Serine/threonine-protein kinase SIK3 (Homo sapiens) (UniProt Q9Y2K2). Description: Binding affinity to wild-type human partial length QSK (A90 to L395 residues) expressed in mammalian expression system assessed as residual binding level at 10 uM by Kinomescan method relative to control.
The target of test [20] is Receptor-interacting serine/threonine-protein kinase 2 (Homo sapiens) (UniProt O43353). Description: Binding affinity to wild-type human partial length RIPK2 (M1 to K310 residues) expressed in bacterial expression system assessed as residual binding level at 10 uM by Kinomescan method relative to control.
Test [21] has as its target Ribosomal protein S6 kinase beta-1 (Homo sapiens) (UniProt P23443). The test is described as follows: Binding affinity to wild-type human partial length S6K1 (M1 to S421 residues) expressed in mammalian expression system assessed as residual binding level at 10 uM by Kinomescan method relative to control.
Test [22] deals with TRAF2 and NCK-interacting protein kinase (Homo sapiens) (UniProt Q9UKE5). Description: Binding affinity to wild-type human partial length TNIK (D4 to K311 residues) expressed in bacterial expression system assessed as residual binding level at 10 uM by Kinomescan method relative to control.
Test [23] has as its target Serine/threonine-protein kinase TNNI3K (Homo sapiens) (UniProt Q59H18). Description: Binding affinity to wild-type human full length TNNI3K (M1 to S835 residues) expressed in bacterial expression system assessed as residual binding level at 10 uM by Kinomescan method relative to control.
Test [24] deals with Serine/threonine-protein kinase ULK3 (Homo sapiens) (UniProt Q6PHR2). Description: Binding affinity to wild-type human partial length ULK3 (M1 to Q290 residues) expressed in mammalian expression system assessed as residual binding level at 10 uM by Kinomescan method relative to control.

Sequence of Mast/stem cell growth factor receptor Kit (Homo sapiens), P10721 [D816V] (P10721 whole entry D816V, the tested form may be a part): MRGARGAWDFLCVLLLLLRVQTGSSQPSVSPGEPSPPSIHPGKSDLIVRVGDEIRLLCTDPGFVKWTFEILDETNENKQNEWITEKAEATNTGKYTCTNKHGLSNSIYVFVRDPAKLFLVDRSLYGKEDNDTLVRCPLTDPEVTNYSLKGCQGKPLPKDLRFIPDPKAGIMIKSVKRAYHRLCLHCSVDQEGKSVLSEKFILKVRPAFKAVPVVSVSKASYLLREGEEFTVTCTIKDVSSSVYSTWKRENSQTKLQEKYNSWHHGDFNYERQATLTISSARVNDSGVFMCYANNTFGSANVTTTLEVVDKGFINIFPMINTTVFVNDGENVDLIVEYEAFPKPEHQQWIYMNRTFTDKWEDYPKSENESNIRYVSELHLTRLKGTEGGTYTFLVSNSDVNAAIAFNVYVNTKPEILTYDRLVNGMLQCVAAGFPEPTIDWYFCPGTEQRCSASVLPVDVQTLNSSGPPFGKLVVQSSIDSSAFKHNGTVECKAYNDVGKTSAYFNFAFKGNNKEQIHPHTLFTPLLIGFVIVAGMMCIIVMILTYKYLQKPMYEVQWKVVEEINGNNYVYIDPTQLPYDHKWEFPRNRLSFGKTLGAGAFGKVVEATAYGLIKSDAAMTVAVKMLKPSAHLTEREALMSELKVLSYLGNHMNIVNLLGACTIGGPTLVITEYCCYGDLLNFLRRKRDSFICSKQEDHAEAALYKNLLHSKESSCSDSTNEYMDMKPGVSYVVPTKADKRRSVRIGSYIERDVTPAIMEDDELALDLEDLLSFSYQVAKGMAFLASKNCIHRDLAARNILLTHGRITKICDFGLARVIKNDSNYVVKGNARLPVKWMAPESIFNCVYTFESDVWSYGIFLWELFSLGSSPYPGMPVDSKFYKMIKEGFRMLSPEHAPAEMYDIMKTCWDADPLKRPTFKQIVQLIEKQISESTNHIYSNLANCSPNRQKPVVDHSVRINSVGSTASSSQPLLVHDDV
Sequence of Homeodomain-interacting protein kinase 4 (Homo sapiens) (Q8NE63 whole entry, the tested form may be a part): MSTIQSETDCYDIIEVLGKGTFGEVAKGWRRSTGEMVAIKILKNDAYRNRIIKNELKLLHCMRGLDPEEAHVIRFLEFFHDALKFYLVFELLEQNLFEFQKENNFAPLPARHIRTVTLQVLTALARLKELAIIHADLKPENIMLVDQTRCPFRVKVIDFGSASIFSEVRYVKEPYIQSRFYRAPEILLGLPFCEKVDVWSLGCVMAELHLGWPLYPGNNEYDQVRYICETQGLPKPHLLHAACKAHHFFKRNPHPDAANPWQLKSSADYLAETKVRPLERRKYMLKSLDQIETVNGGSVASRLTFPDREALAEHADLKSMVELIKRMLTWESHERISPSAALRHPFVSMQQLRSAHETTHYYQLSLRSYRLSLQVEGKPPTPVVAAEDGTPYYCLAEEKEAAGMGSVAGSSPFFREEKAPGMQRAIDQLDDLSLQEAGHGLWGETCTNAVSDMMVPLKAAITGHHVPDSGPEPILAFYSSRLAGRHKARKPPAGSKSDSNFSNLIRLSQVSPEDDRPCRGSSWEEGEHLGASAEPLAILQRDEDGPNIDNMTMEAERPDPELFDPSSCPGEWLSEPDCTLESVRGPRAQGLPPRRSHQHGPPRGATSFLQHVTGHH
Sequence of Mitogen-activated protein kinase kinase kinase 5 (Homo sapiens) (Q99683 whole entry, the tested form may be a part): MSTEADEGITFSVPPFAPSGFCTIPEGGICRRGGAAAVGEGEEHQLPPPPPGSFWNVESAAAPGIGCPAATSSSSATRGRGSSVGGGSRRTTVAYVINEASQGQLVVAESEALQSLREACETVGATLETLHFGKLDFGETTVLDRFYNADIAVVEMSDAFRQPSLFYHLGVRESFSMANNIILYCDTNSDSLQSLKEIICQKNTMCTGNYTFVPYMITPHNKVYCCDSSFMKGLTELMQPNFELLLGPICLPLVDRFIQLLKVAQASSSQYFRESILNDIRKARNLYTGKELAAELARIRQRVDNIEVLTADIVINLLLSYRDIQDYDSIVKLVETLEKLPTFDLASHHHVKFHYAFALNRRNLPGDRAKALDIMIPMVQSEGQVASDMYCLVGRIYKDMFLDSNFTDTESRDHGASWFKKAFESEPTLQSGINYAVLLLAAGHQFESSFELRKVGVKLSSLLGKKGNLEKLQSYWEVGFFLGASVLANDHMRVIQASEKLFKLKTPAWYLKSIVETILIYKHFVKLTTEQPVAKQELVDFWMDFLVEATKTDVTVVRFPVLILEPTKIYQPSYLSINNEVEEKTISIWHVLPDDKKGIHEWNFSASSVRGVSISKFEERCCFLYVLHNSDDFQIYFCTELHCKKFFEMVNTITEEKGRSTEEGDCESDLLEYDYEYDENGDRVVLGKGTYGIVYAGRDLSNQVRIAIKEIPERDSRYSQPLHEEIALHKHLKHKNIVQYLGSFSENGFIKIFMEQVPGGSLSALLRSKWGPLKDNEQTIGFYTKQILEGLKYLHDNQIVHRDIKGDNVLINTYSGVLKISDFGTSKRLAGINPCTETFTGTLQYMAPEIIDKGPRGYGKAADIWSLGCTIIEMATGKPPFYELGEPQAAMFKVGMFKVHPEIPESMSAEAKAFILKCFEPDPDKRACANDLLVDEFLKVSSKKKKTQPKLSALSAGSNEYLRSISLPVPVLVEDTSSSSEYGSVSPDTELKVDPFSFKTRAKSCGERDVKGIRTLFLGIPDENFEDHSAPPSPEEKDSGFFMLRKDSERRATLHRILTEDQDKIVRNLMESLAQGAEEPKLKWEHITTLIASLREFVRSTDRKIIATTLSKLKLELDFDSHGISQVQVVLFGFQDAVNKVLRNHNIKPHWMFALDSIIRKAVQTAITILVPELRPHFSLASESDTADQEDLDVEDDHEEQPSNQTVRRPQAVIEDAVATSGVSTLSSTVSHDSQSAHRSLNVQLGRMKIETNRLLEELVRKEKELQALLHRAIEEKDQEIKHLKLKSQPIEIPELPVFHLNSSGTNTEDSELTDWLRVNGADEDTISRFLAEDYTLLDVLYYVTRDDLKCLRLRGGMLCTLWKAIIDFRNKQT
Sequence of Receptor-interacting serine/threonine-protein kinase 2 (Homo sapiens) (O43353 whole entry, the tested form may be a part): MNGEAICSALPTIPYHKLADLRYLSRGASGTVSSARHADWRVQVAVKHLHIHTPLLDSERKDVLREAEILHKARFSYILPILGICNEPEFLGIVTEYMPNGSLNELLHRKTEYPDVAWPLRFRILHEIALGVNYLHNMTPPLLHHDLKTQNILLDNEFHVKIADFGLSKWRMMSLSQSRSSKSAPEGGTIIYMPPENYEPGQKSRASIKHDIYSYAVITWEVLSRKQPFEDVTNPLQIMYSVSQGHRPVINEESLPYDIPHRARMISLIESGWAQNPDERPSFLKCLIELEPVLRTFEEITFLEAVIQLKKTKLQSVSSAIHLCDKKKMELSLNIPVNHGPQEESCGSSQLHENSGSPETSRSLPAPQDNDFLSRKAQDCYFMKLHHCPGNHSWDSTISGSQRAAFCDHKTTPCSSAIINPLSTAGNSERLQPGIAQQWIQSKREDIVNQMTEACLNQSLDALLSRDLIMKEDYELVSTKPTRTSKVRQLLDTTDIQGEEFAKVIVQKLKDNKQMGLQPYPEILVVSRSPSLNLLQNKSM
Sequence of Serine/threonine-protein kinase SIK3 (Homo sapiens) (Q9Y2K2 whole entry, looked up, the tested form may be a part): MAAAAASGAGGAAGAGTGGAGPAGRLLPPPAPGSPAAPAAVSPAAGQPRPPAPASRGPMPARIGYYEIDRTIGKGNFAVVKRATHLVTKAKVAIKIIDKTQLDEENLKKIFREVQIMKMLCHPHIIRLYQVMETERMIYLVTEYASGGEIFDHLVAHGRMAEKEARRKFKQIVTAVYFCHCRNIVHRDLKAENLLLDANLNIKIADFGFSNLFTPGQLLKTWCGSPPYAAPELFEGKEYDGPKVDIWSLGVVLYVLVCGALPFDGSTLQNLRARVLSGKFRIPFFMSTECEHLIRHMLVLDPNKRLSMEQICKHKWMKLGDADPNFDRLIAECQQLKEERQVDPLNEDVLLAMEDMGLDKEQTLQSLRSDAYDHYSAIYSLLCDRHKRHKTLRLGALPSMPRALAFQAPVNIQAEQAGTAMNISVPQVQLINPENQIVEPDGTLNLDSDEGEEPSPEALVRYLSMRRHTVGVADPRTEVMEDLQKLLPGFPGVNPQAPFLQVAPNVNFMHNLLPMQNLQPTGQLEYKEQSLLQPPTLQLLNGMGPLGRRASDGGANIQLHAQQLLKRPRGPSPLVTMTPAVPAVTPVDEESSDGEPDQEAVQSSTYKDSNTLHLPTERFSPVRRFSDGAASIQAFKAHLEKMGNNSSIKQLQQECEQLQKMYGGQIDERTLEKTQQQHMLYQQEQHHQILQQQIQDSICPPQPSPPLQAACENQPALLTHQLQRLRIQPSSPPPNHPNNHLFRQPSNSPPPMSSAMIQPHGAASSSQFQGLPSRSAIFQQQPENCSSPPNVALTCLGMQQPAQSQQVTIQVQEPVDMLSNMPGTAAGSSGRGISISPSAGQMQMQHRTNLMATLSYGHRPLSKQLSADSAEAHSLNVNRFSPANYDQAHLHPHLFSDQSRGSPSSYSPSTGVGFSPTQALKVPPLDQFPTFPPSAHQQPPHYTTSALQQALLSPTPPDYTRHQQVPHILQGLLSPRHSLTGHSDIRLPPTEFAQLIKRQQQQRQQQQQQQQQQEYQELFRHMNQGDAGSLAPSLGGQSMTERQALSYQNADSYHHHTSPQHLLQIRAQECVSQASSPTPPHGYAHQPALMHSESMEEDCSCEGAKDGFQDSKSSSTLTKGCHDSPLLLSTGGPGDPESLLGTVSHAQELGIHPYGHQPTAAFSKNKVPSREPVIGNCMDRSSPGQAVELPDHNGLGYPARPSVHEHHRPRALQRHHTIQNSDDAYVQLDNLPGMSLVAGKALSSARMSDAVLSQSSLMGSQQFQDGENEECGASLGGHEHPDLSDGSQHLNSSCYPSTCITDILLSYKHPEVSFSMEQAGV

As to `CC(C)N1C(=O)C(NCCCN(C)C)=C(c2cn(C)c3ccccc23)C1=O.Cl`, the Activity in test [1] worked out at 83%; in test [2], 96%; in test [3] it was 78%; in test [4] it was 93%; in [5] it was 80%; in [6] it was 94%. The Activity in test [7] is 100%; in test [8], 97%; in test [9] it was 84%; in test [10], 100%; in test [11], 74%; in test [12], 94%. Also, the Activity in [13] turned out to be 92%; in test [14], 71%; in test [15], 94%; in test [16], 99%; in [17] it was 92%; in test [18] it was 100%. Moreover, the Activity was 93% in test [19]; 100% in [20]; 77% in test [21]; 100% in test [22]; 100% in test [23]; 79% in [24].
